Results taken from patent publication US12459918B2, “Isoquinolinone derivatives serving as rock protein kinase inhibitors and use thereof” (GUANGZHOU OCUSUN OPHTHALMIC BIOTECHNOLOGY CO., LTD., priority 2019, dated 2025).

Tested on: New Zealand rabbits with normal intraocular pressure
Test: Intraocular pressure reduction experiment in New Zealand rabbits with normal intraocular pressure
Assay type: in vivo
Conditions: for Intraocular pressure in the left eye: left eye (saline or solvent); for Reduction magnitude of intraocular pressure: left minus right eye
Source text: Experimental Example 2. Intraocular Pressure Reduction Experiment in New Zealand Rabbits with Normal Intraocular Pressure
Rabbits with normal intraocular pressure were adopted to screen intraocular pressure reduction actions of the potential compounds by eye-drop administration.
Male New Zealand rabbits, aged 97-127 days, weighted 2.65-3.5 kg, purchased from PizhouDongfang Breeding Co. Ltd.
The male New Zealand rabbits were randomly divided into 8 rabbits/per group using a computer-generated randomization method Animals in each group were eye-dropped with different test samples in the right eye, and normal saline or solvent in the left eye, and the volume of the administration was both 50 μL/eye. The intraocular pressure of the animals was measured before administration and in 1, 2, 4, 6, 8 and 10 hours after the administration, respectively.

Cc1cn(COC(=O)c2ccccc2)c(=O)c2cccc(S(=O)(=O)N3CCC(N)C3)c12 (stereo not shown) [Compound 60]
Intraocular pressure in the left eye (2.5 mg/mL group, 1 hour after administration): 11.63 mmHg | Intraocular pressure in the left eye (2.5 mg/mL group, 2 hours after administration): 11.58 mmHg | Intraocular pressure in the left eye (2.5 mg/mL group, 4 hours after administration): 12.83 mmHg | Intraocular pressure in the left eye (2.5 mg/mL group, 6 hours after administration): 12.38 mmHg | Intraocular pressure in the left eye (2.5 mg/mL group, 8 hours after administration): 12.29 mmHg | Intraocular pressure in the left eye (2.5 mg/mL group, 10 hours after administration): 14.33 mmHg | Intraocular pressure in the left eye (2.5 mg/mL group, before administration): 12.13 mmHg | Intraocular pressure in the right eye (2.5 mg/mL in right eye, 1 hour after administration): 8.38 mmHg | Intraocular pressure in the right eye (2.5 mg/mL in right eye, 2 hours after administration): 7.58 mmHg | Intraocular pressure in the right eye (2.5 mg/mL in right eye, 4 hours after administration): 9.04 mmHg | Intraocular pressure in the right eye (2.5 mg/mL in right eye, 6 hours after administration): 9.88 mmHg | Intraocular pressure in the right eye (2.5 mg/mL in right eye, 8 hours after administration): 11.33 mmHg | Intraocular pressure in the right eye (2.5 mg/mL in right eye, 10 hours after administration): 13.71 mmHg | Intraocular pressure in the right eye (2.5 mg/mL in right eye, before administration): 12.38 mmHg | Reduction magnitude of intraocular pressure (2.5 mg/mL, 1 hour after administration): 3.25 mmHg | Reduction magnitude of intraocular pressure (2.5 mg/mL, 2 hours after administration): 4 mmHg | Reduction magnitude of intraocular pressure (2.5 mg/mL, 4 hours after administration): 3.79 mmHg | Reduction magnitude of intraocular pressure (2.5 mg/mL, 6 hours after administration): 2.5 mmHg | Reduction magnitude of intraocular pressure (2.5 mg/mL, 8 hours after administration): 0.96 mmHg | Reduction magnitude of intraocular pressure (2.5 mg/mL, 10 hours after administration): 0.62 mmHg | Reduction magnitude of intraocular pressure (2.5 mg/mL, before administration): −0.25 mmHg | Intraocular pressure in the left eye (5.0 mg/mL group, 1 hour after administration): 11.33 mmHg | Intraocular pressure in the left eye (5.0 mg/mL group, 2 hours after administration): 11.42 mmHg | Intraocular pressure in the left eye (5.0 mg/mL group, 4 hours after administration): 12.63 mmHg | Intraocular pressure in the left eye (5.0 mg/mL group, 6 hours after administration): 12.75 mmHg | Intraocular pressure in the left eye (5.0 mg/mL group, 8 hours after administration): 13.29 mmHg | Intraocular pressure in the left eye (5.0 mg/mL group, 10 hours after administration): 14.08 mmHg | Intraocular pressure in the left eye (5.0 mg/mL group, before administration): 11.79 mmHg | Intraocular pressure in the right eye (5.0 mg/mL in right eye, 1 hour after administration): 7.83 mmHg | Intraocular pressure in the right eye (5.0 mg/mL in right eye, 2 hours after administration): 7.00 mmHg | Intraocular pressure in the right eye (5.0 mg/mL in right eye, 4 hours after administration): 7.79 mmHg | Intraocular pressure in the right eye (5.0 mg/mL in right eye, 6 hours after administration): 8.54 mmHg | Intraocular pressure in the right eye (5.0 mg/mL in right eye, 8 hours after administration): 10.13 mmHg | Intraocular pressure in the right eye (5.0 mg/mL in right eye, 10 hours after administration): 12.54 mmHg | Intraocular pressure in the right eye (5.0 mg/mL in right eye, before administration): 11.75 mmHg | Reduction magnitude of intraocular pressure (5.0 mg/mL, 1 hour after administration): 3.5 mmHg | Reduction magnitude of intraocular pressure (5.0 mg/mL, 2 hours after administration): 4.42 mmHg | Reduction magnitude of intraocular pressure (5.0 mg/mL, 4 hours after administration): 4.84 mmHg | Reduction magnitude of intraocular pressure (5.0 mg/mL, 6 hours after administration): 4.21 mmHg | Reduction magnitude of intraocular pressure (5.0 mg/mL, 8 hours after administration): 3.16 mmHg | Reduction magnitude of intraocular pressure (5.0 mg/mL, 10 hours after administration): 1.54 mmHg | Reduction magnitude of intraocular pressure (5.0 mg/mL, before administration): 0.04 mmHg | Intraocular pressure in the left eye (10.0 mg/mL group, 1 hour after administration): 12.08 mmHg | Intraocular pressure in the left eye (10.0 mg/mL group, 2 hours after administration): 12.08 mmHg | Intraocular pressure in the left eye (10.0 mg/mL group, 4 hours after administration): 12.96 mmHg | Intraocular pressure in the left eye (10.0 mg/mL group, 6 hours after administration): 12.38 mmHg | Intraocular pressure in the left eye (10.0 mg/mL group, 8 hours after administration): 13.04 mmHg | Intraocular pressure in the left eye (10.0 mg/mL group, 10 hours after administration): 13.38 mmHg | Intraocular pressure in the left eye (10.0 mg/mL group, before administration): 11.96 mmHg | Intraocular pressure in the right eye (10.0 mg/mL in right eye, 1 hour after administration): 7.96 mmHg | Intraocular pressure in the right eye (10.0 mg/mL in right eye, 2 hours after administration): 6.42 mmHg | Intraocular pressure in the right eye (10.0 mg/mL in right eye, 4 hours after administration): 7.13 mmHg | Intraocular pressure in the right eye (10.0 mg/mL in right eye, 6 hours after administration): 8.00 mmHg | Intraocular pressure in the right eye (10.0 mg/mL in right eye, 8 hours after administration): 9.42 mmHg | Intraocular pressure in the right eye (10.0 mg/mL in right eye, 10 hours after administration): 10.96 mmHg | Intraocular pressure in the right eye (10.0 mg/mL in right eye, before administration): 11.33 mmHg | Reduction magnitude of intraocular pressure (10.0 mg/mL, 1 hour after administration): 4.12 mmHg | Reduction magnitude of intraocular pressure (10.0 mg/mL, 2 hours after administration): 5.66 mmHg | Reduction magnitude of intraocular pressure (10.0 mg/mL, 4 hours after administration): 5.83 mmHg | Reduction magnitude of intraocular pressure (10.0 mg/mL, 6 hours after administration): 4.38 mmHg | Reduction magnitude of intraocular pressure (10.0 mg/mL, 8 hours after administration): 3.62 mmHg | Reduction magnitude of intraocular pressure (10.0 mg/mL, 10 hours after administration): 2.42 mmHg | Reduction magnitude of intraocular pressure (10.0 mg/mL, before administration): 0.63 mmHg | Intraocular pressure in the left eye (20 mg/mL group, 1 hour after administration): 12.42 mmHg | Intraocular pressure in the left eye (20 mg/mL group, 2 hours after administration): 12.96 mmHg | Intraocular pressure in the left eye (20 mg/mL group, 4 hours after administration): 13.17 mmHg | Intraocular pressure in the left eye (20 mg/mL group, 6 hours after administration): 12.54 mmHg | Intraocular pressure in the left eye (20 mg/mL group, 8 hours after administration): 13.17 mmHg | Intraocular pressure in the left eye (20 mg/mL group, 10 hours after administration): 13.71 mmHg | Intraocular pressure in the left eye (20 mg/mL group, before administration): 12.63 mmHg | Intraocular pressure in the right eye (20 mg/mL in right eye, 1 hour after administration): 10.21 mmHg | Intraocular pressure in the right eye (20 mg/mL in right eye, 2 hours after administration): 7.17 mmHg | Intraocular pressure in the right eye (20 mg/mL in right eye, 4 hours after administration): 7.92 mmHg | Intraocular pressure in the right eye (20 mg/mL in right eye, 6 hours after administration): 7.63 mmHg | Intraocular pressure in the right eye (20 mg/mL in right eye, 8 hours after administration): 8.83 mmHg | Intraocular pressure in the right eye (20 mg/mL in right eye, 10 hours after administration): 10.83 mmHg | Intraocular pressure in the right eye (20 mg/mL in right eye, before administration): 12.42 mmHg | Reduction magnitude of intraocular pressure (20 mg/mL, 1 hour after administration): 2.21 mmHg | Reduction magnitude of intraocular pressure (20 mg/mL, 2 hours after administration): 5.79 mmHg | Reduction magnitude of intraocular pressure (20 mg/mL, 4 hours after administration): 5.25 mmHg | Reduction magnitude of intraocular pressure (20 mg/mL, 6 hours after administration): 4.91 mmHg | Reduction magnitude of intraocular pressure (20 mg/mL, 8 hours after administration): 4.34 mmHg | Reduction magnitude of intraocular pressure (20 mg/mL, 10 hours after administration): 2.88 mmHg | Reduction magnitude of intraocular pressure (20 mg/mL, before administration): 0.21 mmHg | Reduction of intraocular pressure (concentrations of 2.5, 5 and 10 mg/mL): remarkably significant reduction of intraocular pressure
